Consider 1 compound from ChEMBL document CHEMBL2176906, “Diterpenoids isolated from Sideritis species protect astrocytes against oxidative stress via Nrf2” (J Nat Prod, 2012).

The assay deals with U373 MG. The assay is described as follows: Inhibition of AAPH-induced oxidative stress in human U373MG cells assessed as peroxy radical scavenging activity at 8 uM by ORAC assay. The format is functional, cell-based. Conditions: U-373MG ATCC.

Calls of active or inactive are those of the source. The calls are words filed in the database; no cut-off is given here.

`Cc1c(C)c2c(c(C)c1O)CCC(C)(C(=O)O)O2` (stereo unspecified): the outcome was Active.
